Assay results: patent US20080009418A1, “Selective Inhibitors” (Alchemia LTD., priority 2004, published 2008)

Key:
Settings in all cases: compound at 10 μM
Human μ-opioid (MOP) = target: T1, Human μ-opioid (MOP) (Homo sapiens, UniProt P35372); assay: Radioligand binding, human μ-opioid (MOP) membranes, FlashPlate, [3H]-Naloxone
T1 construct: purchased Perkin Elmer Biosignal
Method in brief: (§1)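 Cloned human receptor membranes were coated onto FlashPlate wells and incubated with radioligand and compound (added from a 0.5 mM DMSO daughter plate) for 1 hour at room temperature in the dark. Scintillation counting gave percent inhibition, with DMSO defining total and reference ligand defining non-specific binding.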

[1] = target: T2, Human neuropeptide Y (NPY-Y1) (Homo sapiens, UniProt P25929); assay: Radioligand binding, human neuropeptide Y NPY-Y1 membranes, FlashPlate, [125I]-PYY
T2 construct: purchased Perkin Elmer Biosignal
T2 sequence (P25929 1-384): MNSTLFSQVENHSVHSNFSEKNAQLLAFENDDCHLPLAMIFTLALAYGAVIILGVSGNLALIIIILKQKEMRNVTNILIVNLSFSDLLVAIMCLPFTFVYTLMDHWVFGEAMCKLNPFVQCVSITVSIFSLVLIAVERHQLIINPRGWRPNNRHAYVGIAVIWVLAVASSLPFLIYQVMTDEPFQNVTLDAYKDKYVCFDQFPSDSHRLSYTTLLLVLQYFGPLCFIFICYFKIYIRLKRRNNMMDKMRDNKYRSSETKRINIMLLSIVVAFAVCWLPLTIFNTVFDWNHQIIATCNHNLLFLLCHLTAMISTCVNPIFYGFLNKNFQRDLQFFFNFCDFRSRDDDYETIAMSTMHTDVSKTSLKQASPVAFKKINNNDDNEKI
Method in brief: as §1

Human melanocortin (MC5) = target: T3, Human melanocortin (MC5) (Homo sapiens, UniProt P33032); assay: Radioligand binding, human melanocortin MC5 membranes, FlashPlate, [125I]-NDP-αMSH
T3 construct: purchased Perkin Elmer Biosignal
Method in brief: as §1

Mouse urotensin (mUR2) = target: T4, Mouse urotensin (mUR2) (Mus musculus, UniProt Q8VIH9); assay: Radioligand binding, mouse urotensin mUR2 membranes, FlashPlate, [125I]-Urotensin II
T4 construct: purchased Perkin Elmer Biosignal
T4 sequence (Q8VIH9 1-385): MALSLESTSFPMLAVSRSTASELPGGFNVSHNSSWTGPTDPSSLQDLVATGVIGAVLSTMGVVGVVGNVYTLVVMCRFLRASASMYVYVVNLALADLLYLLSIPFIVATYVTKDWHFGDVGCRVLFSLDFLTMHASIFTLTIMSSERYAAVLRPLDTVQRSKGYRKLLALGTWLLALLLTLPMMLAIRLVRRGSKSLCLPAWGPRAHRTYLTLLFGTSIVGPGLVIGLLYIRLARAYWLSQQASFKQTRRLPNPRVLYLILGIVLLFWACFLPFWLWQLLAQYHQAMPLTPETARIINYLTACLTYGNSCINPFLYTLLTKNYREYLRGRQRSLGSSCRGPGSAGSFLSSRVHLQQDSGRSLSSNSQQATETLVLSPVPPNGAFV
Method in brief: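 Cloned mouse urotensin (mUR2) receptor membranes from Perkin Elmer Biosignal were immobilized in FlashPlate microplates using a proprietary coating. Each well got 19.5 μl buffer, then 0.5 μl of DMSO, reference ligand, or compound. Adding 5 μl of [125I]-Urotensin II, diluted to 5× final concentration in binding buffer, started binding. Plates were sealed with TopSeal-A and incubated 1 hour at room temperature in the dark. Wells were counted for 30 seconds each on a TopCount after a 60-second delay, and percentage inhibition was calculated.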

Human Melanocortin (MC3) = target: T5, Human Melanocortin (MC3) (Homo sapiens, UniProt P41968); assay: Radioligand binding, human melanocortin MC3 membranes, FlashPlate, [125I]-NDP-αMSH
T5 construct: purchased Perkin Elmer Biosignal
Method in brief: as §1

Human neurokinin (NK1) = target: T6, Human neurokinin (NK1) (Homo sapiens, UniProt P25103); assay: Radioligand binding, human neurokinin NK1 membranes, filtration, [125I]-Substance P
T6 construct: purchased Perkin Elmer Biosignal
Method in brief: (§2)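 Membranes from cloned human receptors were incubated with compound and radioligand for 1 hour at room temperature. Bound ligand was collected on 0.3% PEI-soaked filters, washed with cold 50 mM Tris-HCl pH 7.4, and counted by scintillation. Percent inhibition was computed against DMSO totals and reference-ligand nonspecific wells.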

Human Melanocortin (MC4) = target: T7, Human Melanocortin (MC4) (Homo sapiens, UniProt P32245); assay: Radioligand binding, human melanocortin MC4 membranes, FlashPlate, [125I]-NDP-αMSH
T7 construct: purchased Perkin Elmer Biosignal
Method in brief: as §1

[2] = target: T8, Human melanin-concentrating hormone (MCH1) (Homo sapiens, UniProt Q99705); assay: Radioligand binding, human melanin-concentrating hormone MCH1 membranes, FlashPlate, [125I]-S36057
T8 construct: purchased Perkin Elmer Biosignal
Method in brief: as §1

Human δ-opioid (DOP) = target: T9, Human δ-opioid (DOP) (Homo sapiens, UniProt P41143); assay: Radioligand binding, human δ-opioid (DOP) membranes, FlashPlate, [3H]-Bremazocine
T9 construct: purchased Perkin Elmer Biosignal
Method in brief: as §1

Human κ-Opioid (KOP) = target: T10, Human κ-Opioid (KOP) (Homo sapiens, UniProt P41145); assay: Radioligand binding, human κ-opioid (KOP) membranes, filtration, [3H]-Diprenorphine
T10 construct: purchased Perkin Elmer Biosignal
Method in brief: as §2

Human opioid (ORL1) = target: T11, Human opioid (ORL1) (Homo sapiens, UniProt P41146); assay: Radioligand binding, human opioid ORL1 membranes, FlashPlate, [125I]-Nociceptin
T11 construct: purchased Perkin Elmer Biosignal
Method in brief: as §1

[3] = [125I]-Urotensin II, FlashPlate

T11 sequence (P41146 whole entry): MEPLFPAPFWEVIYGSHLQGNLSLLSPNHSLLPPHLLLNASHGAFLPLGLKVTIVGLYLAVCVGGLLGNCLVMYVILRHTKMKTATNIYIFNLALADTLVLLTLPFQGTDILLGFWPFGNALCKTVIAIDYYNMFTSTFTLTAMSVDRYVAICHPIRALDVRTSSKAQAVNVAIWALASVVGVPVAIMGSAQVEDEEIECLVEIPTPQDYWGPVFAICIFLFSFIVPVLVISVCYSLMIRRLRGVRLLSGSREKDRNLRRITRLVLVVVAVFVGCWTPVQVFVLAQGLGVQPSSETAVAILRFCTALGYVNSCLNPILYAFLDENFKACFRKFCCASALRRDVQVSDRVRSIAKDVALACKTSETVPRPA
T3 sequence (P33032 whole entry): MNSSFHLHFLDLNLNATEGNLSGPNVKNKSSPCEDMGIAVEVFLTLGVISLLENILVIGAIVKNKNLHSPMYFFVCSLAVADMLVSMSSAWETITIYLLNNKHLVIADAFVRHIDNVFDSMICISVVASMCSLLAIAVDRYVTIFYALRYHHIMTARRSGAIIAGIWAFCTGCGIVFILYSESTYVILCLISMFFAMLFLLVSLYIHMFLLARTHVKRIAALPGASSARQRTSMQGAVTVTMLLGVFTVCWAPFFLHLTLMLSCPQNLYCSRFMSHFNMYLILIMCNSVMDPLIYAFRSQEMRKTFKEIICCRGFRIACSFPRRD
T10 sequence (P41145 whole entry): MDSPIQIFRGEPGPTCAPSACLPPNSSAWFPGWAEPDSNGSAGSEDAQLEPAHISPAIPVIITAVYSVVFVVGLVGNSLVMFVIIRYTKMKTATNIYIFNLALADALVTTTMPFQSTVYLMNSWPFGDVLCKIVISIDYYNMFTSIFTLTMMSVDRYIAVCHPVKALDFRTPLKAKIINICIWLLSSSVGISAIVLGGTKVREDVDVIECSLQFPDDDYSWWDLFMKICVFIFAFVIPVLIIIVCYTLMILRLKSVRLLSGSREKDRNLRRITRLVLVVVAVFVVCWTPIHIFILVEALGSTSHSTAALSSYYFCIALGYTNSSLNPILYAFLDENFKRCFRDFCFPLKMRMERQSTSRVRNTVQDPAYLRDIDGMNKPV
T1 sequence (P35372 whole entry): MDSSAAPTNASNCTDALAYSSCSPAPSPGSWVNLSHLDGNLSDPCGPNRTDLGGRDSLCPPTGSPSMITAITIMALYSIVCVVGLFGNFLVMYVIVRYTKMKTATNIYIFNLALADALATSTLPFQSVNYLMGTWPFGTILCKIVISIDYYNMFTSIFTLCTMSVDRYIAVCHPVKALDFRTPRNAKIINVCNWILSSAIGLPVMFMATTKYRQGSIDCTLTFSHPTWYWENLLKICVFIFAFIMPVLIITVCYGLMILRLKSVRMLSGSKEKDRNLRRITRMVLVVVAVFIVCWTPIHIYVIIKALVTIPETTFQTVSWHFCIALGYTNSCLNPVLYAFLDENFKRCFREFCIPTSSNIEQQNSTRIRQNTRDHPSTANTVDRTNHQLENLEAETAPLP
T9 sequence (P41143 whole entry): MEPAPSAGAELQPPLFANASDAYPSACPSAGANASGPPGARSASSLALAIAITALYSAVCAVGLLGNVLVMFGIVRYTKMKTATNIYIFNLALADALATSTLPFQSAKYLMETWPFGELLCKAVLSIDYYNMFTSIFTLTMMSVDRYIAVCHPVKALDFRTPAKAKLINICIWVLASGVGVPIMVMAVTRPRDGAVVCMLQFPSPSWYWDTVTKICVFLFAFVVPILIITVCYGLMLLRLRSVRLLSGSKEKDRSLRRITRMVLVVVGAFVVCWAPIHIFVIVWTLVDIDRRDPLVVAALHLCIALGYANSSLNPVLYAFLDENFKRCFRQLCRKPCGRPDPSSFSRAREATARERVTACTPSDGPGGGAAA
T7 sequence (P32245 whole entry): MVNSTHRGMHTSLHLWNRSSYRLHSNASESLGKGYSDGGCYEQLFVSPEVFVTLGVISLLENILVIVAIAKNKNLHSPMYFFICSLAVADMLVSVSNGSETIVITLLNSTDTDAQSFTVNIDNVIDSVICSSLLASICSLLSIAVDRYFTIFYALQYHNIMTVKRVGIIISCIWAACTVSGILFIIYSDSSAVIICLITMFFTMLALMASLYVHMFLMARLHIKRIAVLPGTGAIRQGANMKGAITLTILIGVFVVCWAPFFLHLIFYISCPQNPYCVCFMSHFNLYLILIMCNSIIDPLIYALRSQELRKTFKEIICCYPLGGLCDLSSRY
T8 sequence (Q99705 whole entry): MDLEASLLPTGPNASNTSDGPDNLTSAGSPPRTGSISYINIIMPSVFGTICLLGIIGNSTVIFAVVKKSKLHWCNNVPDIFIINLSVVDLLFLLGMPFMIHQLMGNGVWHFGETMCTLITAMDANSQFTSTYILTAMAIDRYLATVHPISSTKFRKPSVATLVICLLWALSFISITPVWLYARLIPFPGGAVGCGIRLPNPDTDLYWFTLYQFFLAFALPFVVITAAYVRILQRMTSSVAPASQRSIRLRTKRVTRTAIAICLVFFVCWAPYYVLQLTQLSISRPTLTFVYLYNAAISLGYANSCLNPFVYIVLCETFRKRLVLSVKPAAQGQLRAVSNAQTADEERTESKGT
T6 sequence (P25103 whole entry): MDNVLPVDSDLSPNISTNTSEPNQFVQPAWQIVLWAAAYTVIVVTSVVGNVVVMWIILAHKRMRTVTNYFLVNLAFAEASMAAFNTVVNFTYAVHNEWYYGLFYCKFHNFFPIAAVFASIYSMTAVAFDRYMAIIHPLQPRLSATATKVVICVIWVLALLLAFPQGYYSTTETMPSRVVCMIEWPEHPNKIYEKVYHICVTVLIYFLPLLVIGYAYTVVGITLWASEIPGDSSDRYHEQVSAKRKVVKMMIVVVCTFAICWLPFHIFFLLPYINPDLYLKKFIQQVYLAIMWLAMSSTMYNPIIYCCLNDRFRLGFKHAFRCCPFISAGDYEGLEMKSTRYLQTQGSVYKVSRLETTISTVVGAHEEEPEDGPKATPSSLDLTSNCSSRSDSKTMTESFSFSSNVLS
T5 sequence (P41968 whole entry): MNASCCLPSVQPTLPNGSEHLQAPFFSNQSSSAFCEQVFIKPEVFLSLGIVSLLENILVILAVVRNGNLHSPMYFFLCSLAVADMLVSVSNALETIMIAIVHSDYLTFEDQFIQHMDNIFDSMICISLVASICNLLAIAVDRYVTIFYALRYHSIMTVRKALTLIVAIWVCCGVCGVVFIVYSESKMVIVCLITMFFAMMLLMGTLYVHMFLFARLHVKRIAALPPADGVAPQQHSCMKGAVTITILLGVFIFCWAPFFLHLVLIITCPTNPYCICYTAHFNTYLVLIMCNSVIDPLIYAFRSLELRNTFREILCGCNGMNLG

SMILES: NCCCC(=O)NC1C(OCc2ccc3ccccc3c2)OC(COCc2ccc(Cl)cc2)C(O)C1OCc1ccc2ccccc2c1 (single isomer, unassigned) [compound 464]
- A7: inhibition of radioligand binding (Human μ-opioid (MOP); [3H]-Naloxone, human MOP membranes): − (“−” indicates less than 50% inhibition at 10 μM)
- A9: inhibition of radioligand binding ([1]; [125I]-PYY, human NPY-Y1 membranes): − (“−” indicates less than 50% inhibition at 10 μM)
- A5: inhibition of radioligand binding (Human melanocortin (MC5); [125I]-NDP-αMSH, human MC5 membranes): + (“+” indicates greater than 50% inhibition at 10 μM)
- A11: inhibition of radioligand binding (Mouse urotensin (mUR2); [125I]-Urotensin II, mouse mUR2 membranes): − (“−” indicates less than 50% inhibition at 10 μM)
- A3: inhibition of radioligand binding (Human Melanocortin (MC3); [125I]-NDP-αMSH, human MC3 membranes): + (“+” indicates greater than 50% inhibition at 10 μM)
- A8: inhibition of radioligand binding (Human neurokinin (NK1); [125I]-Substance P, human NK1 membranes): + (“+” indicates greater than 50% inhibition at 10 μM)
- A4: inhibition of radioligand binding (Human Melanocortin (MC4); [125I]-NDP-αMSH, human MC4 membranes): + (“+” indicates greater than 50% inhibition at 10 μM)
- A6: inhibition of radioligand binding ([2]; [125I]-S36057, human MCH1 membranes, 10 µM): + (“+” indicates greater than 50% inhibition at 10 μM)
- A1: inhibition of radioligand binding (Human δ-opioid (DOP); [3H]-Bremazocine, human DOP membranes): − (“−” indicates less than 50% inhibition at 10 μM)
- A2: inhibition of radioligand binding (Human κ-Opioid (KOP); [3H]-Diprenorphine, human KOP membranes, 10 µM): − (“−” indicates less than 50% inhibition at 10 μM)
- A10: inhibition of radioligand binding (Human opioid (ORL1); [125I]-Nociceptin, human ORL1 membranes, 10 µM): + (“+” indicates greater than 50% inhibition at 10 μM)

SMILES: COCC1OC(OCc2ccccc2)C(NC(=O)CCNC(=N)N)C(OCc2ccc3ccccc3c2)C1O (stereo not shown) [compound 191]
- A7: inhibition of radioligand binding (Human μ-opioid (MOP); [3H]-Naloxone, FlashPlate): − (“−” indicates less than 50% inhibition at 10 μM)
- A9: inhibition of radioligand binding ([1]; [125I]-PYY, FlashPlate): − (“−” indicates less than 50% inhibition at 10 μM)
- A5: inhibition of radioligand binding (Human melanocortin (MC5); [125I]-NDP-αMSH, FlashPlate): + (“+” indicates greater than 50% inhibition at 10 μM)
- A11: inhibition of radioligand binding (Mouse urotensin (mUR2); [3]): − (“−” indicates less than 50% inhibition at 10 μM)
- A3: inhibition of radioligand binding (Human Melanocortin (MC3); [125I]-NDP-αMSH, FlashPlate): − (“−” indicates less than 50% inhibition at 10 μM)
- A8: inhibition of radioligand binding (Human neurokinin (NK1); [125I]-Substance P, filtration): + (“+” indicates greater than 50% inhibition at 10 μM)
- A4: inhibition of radioligand binding (Human Melanocortin (MC4); [125I]-NDP-αMSH, FlashPlate): + (“+” indicates greater than 50% inhibition at 10 μM)
- A6: inhibition of radioligand binding ([2]; [125I]-S36057, FlashPlate): + (“+” indicates greater than 50% inhibition at 10 μM)
- A1: inhibition of radioligand binding (Human δ-opioid (DOP); [3H]-Bremazocine, FlashPlate): − (“−” indicates less than 50% inhibition at 10 μM)
- A2: inhibition of radioligand binding (Human κ-Opioid (KOP); [3H]-Diprenorphine, filtration): − (“−” indicates less than 50% inhibition at 10 μM)
- A10: inhibition of radioligand binding (Human opioid (ORL1); [125I]-Nociceptin, FlashPlate): − (“−” indicates less than 50% inhibition at 10 μM)

SMILES: CSC1OC(COCc2ccccc2)C(O)C(OCc2ccc(Cl)cc2)C1NC(=O)CCNC(=N)N (stereo not shown) [compound 267]
- A7: inhibition of radioligand binding (Human μ-opioid (MOP); [3H]-Naloxone, FlashPlate): − (“−” indicates less than 50% inhibition at 10 μM)
- A9: inhibition of radioligand binding ([1]; [125I]-PYY, FlashPlate): − (“−” indicates less than 50% inhibition at 10 μM)
- A5: inhibition of radioligand binding (Human melanocortin (MC5); [125I]-NDP-αMSH, FlashPlate): − (“−” indicates less than 50% inhibition at 10 μM)
- A11: inhibition of radioligand binding (Mouse urotensin (mUR2); [3]): − (“−” indicates less than 50% inhibition at 10 μM)
- A3: inhibition of radioligand binding (Human Melanocortin (MC3); [125I]-NDP-αMSH, FlashPlate): − (“−” indicates less than 50% inhibition at 10 μM)
- A8: inhibition of radioligand binding (Human neurokinin (NK1); [125I]-Substance P, filtration): + (“+” indicates greater than 50% inhibition at 10 μM)
- A4: inhibition of radioligand binding (Human Melanocortin (MC4); [125I]-NDP-αMSH, FlashPlate): + (“+” indicates greater than 50% inhibition at 10 μM)
- A6: inhibition of radioligand binding ([2]; [125I]-S36057, FlashPlate): − (“−” indicates less than 50% inhibition at 10 μM)
- A1: inhibition of radioligand binding (Human δ-opioid (DOP); [3H]-Bremazocine, FlashPlate): − (“−” indicates less than 50% inhibition at 10 μM)
- A2: inhibition of radioligand binding (Human κ-Opioid (KOP); [3H]-Diprenorphine, filtration): − (“−” indicates less than 50% inhibition at 10 μM)
- A10: inhibition of radioligand binding (Human opioid (ORL1); [125I]-Nociceptin, FlashPlate): − (“−” indicates less than 50% inhibition at 10 μM)

SMILES: COC[C@H]1OC(OCc2cccc(O)c2)[C@H](NC(=O)CCNC(=N)N)[C@@H](OCc2ccc(-c3ccccc3)cc2)[C@@H]1O (stereo partly shown) [compound 142]
- A7 radioligand binding, percentage inhibition (Human μ-opioid (MOP); [3H]-Naloxone): − (“−” indicates less than 50% inhibition at 10 μM)
- A9 radioligand binding, percentage inhibition ([1]; [125I]-PYY): − (“−” indicates less than 50% inhibition at 10 μM)
- A5 radioligand binding, percentage inhibition (Human melanocortin (MC5); [125I]-NDP-αMSH): − (“−” indicates less than 50% inhibition at 10 μM)
- A11 radioligand binding, percentage inhibition (Mouse urotensin (mUR2); [125I]-Urotensin II): − (“−” indicates less than 50% inhibition at 10 μM)
- A3 radioligand binding, percentage inhibition (Human Melanocortin (MC3); [125I]-NDP-αMSH): − (“−” indicates less than 50% inhibition at 10 μM)
- A8 radioligand binding, percentage inhibition (Human neurokinin (NK1); [125I]-Substance P): − (“−” indicates less than 50% inhibition at 10 μM)
- A4 radioligand binding, percentage inhibition (Human Melanocortin (MC4); [125I]-NDP-αMSH): − (“−” indicates less than 50% inhibition at 10 μM)
- A6 radioligand binding, percentage inhibition ([2]; [125I]-S36057): + (“+” indicates greater than 50% inhibition at 10 μM)
- A1 radioligand binding, percentage inhibition (Human δ-opioid (DOP); [3H]-Bremazocine): − (“−” indicates less than 50% inhibition at 10 μM)
- A2 radioligand binding, percentage inhibition (Human κ-Opioid (KOP); [3H]-Diprenorphine): − (“−” indicates less than 50% inhibition at 10 μM)
- A10 radioligand binding, percentage inhibition (Human opioid (ORL1); [125I]-Nociceptin): − (“−” indicates less than 50% inhibition at 10 μM)

SMILES: COC[C@H]1OC(OCc2ccc(Cl)cc2)[C@H](NC(=O)CCCN)[C@@H](OCc2ccccc2)[C@@H]1O (stereo partly shown) [compound 35]
- A7 radioligand binding inhibition (Human μ-opioid (MOP); human μ-opioid (MOP) membranes): − (“−” indicates less than 50% inhibition at 10 μM)
- A9 radioligand binding inhibition ([1]; human NPY-Y1 membranes): − (“−” indicates less than 50% inhibition at 10 μM)
- A5 radioligand binding inhibition (Human melanocortin (MC5); human melanocortin MC5 membranes): − (“−” indicates less than 50% inhibition at 10 μM)
- A11 radioligand binding inhibition (Mouse urotensin (mUR2); mouse urotensin mUR2 membranes): − (“−” indicates less than 50% inhibition at 10 μM)
- A3 radioligand binding inhibition (Human Melanocortin (MC3); human melanocortin MC3 membranes): − (“−” indicates less than 50% inhibition at 10 μM)
- A8 radioligand binding inhibition (Human neurokinin (NK1); human neurokinin NK1 membranes): + (“+” indicates greater than 50% inhibition at 10 μM)
- A4 radioligand binding inhibition (Human Melanocortin (MC4); human melanocortin MC4 membranes): − (“−” indicates less than 50% inhibition at 10 μM)
- A6 radioligand binding inhibition ([2]; human MCH1 membranes): − (“−” indicates less than 50% inhibition at 10 μM)
- A1 radioligand binding inhibition (Human δ-opioid (DOP); human δ-opioid (DOP) membranes): − (“−” indicates less than 50% inhibition at 10 μM)
- A2 radioligand binding inhibition (Human κ-Opioid (KOP); human κ-opioid (KOP) membranes): − (“−” indicates less than 50% inhibition at 10 μM)
- A10 radioligand binding inhibition (Human opioid (ORL1); human ORL1 membranes): − (“−” indicates less than 50% inhibition at 10 μM)
